Experiments:
Assay in all cases: relative viability (nuclei count vs DMSO), 5 days (fraction); higher = more cells survive
[1] = tested on: 201T
Summary of the method: (§1)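 A single step with final 0.05% Triton X-100, 1% formaldehyde and 1 ug/ml Hoechst fixed the cells and stained nuclei 5 days after treatment. Lung cancer cell lines in 1536-well plates had been treated by pin tool the day after seeding with one drug alone or a fixed anchor-drug dose plus five library-drug doses (not always all listed) in √10 steps, and nuclei were counted on 4× images. Relative viability is the ratio of nuclei in treated wells to nuclei in vehicle wells, taken as the median of duplicate plates.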

[2] = tested on: COR-L 105
Summary of the method: as §1

[3] = tested on: COR-L23
Summary of the method: as §1

[4] = tested on: EKVX
Summary of the method: as §1

[5] = tested on: EPLC-272H
Summary of the method: as §1

[6] = tested on: H3255
Summary of the method: as §1

[7] = tested on: HCC-15
Summary of the method: as §1

[8] = tested on: HCC-827
Summary of the method: as §1

[9] = tested on: LCLC-97TM1
Summary of the method: as §1

[10] = tested on: NCI-H1395
Summary of the method: as §1

[11] = tested on: NCI-H1648
Summary of the method: as §1

[12] = tested on: NCI-H1650
Summary of the method: as §1

[13] = tested on: NCI-H1651
Summary of the method: as §1

[14] = tested on: NCI-H1792
Summary of the method: as §1

[15] = tested on: NCI-H1915
Summary of the method: as §1

[16] = tested on: NCI-H2023
Summary of the method: as §1

[17] = tested on: NCI-H322M
Summary of the method: as §1

[18] = tested on: NCI-H358
Summary of the method: as §1

[19] = tested on: NCI-H460
Summary of the method: as §1

[20] = tested on: NCI-H520
Summary of the method: as §1

[21] = tested on: NCI-H596
Summary of the method: as §1

[22] = tested on: NCI-H647
Summary of the method: as §1

[23] = tested on: SK-MES-1
Summary of the method: as §1

[24] = tested on: SW 900
Summary of the method: as §1

Oc1nc(-c2ccc(C(F)(F)F)cc2)nc2c1CSCC2 [XAV939] + Nc1nc2[nH]cc(CCc3ccc(C(=O)N[C@@H](CCC(=O)O)C(=O)O)cc3)c2c(=O)[nH]1 [Pemetrexed] (partner 0.2 µM)
relative viability ([1]; first compound 0.08 µM): 0.359
relative viability ([1]; first compound 0.253 µM): 0.338
relative viability ([1]; first compound 0.8 µM): 0.374
relative viability ([1]; first compound 2.53 µM): 0.288
relative viability ([2]; first compound 0.08 µM): 1.09
relative viability ([2]; first compound 0.253 µM): 0.916
relative viability ([2]; first compound 0.8 µM): 1.03
relative viability ([2]; first compound 2.53 µM): 0.875
relative viability ([3]; first compound 0.08 µM): 0.205
relative viability ([3]; first compound 0.253 µM): 0.186
relative viability ([3]; first compound 0.8 µM): 0.203
relative viability ([3]; first compound 2.53 µM): 0.206
relative viability ([4]; first compound 0.08 µM): 0.443
relative viability ([4]; first compound 0.253 µM): 0.326
relative viability ([4]; first compound 0.8 µM): 0.266
relative viability ([4]; first compound 2.53 µM): 0.303
relative viability ([5]; first compound 0.08 µM): 0.312
relative viability ([5]; first compound 0.253 µM): 0.238
relative viability ([5]; first compound 0.8 µM): 0.511
relative viability ([5]; first compound 2.53 µM): 0.308
relative viability ([6]; first compound 0.08 µM): 0.576
relative viability ([6]; first compound 0.253 µM): 0.544
relative viability ([6]; first compound 0.8 µM): 0.55
relative viability ([6]; first compound 2.53 µM): 0.465
relative viability ([7]; first compound 0.08 µM): 0.238
relative viability ([7]; first compound 0.253 µM): 0.214
relative viability ([7]; first compound 0.8 µM): 0.241
relative viability ([7]; first compound 2.53 µM): 0.201
relative viability ([8]; first compound 0.08 µM): 0.275
relative viability ([8]; first compound 0.253 µM): 0.268
relative viability ([8]; first compound 0.8 µM): 0.254
relative viability ([8]; first compound 2.53 µM): 0.245
relative viability ([9]; first compound 0.08 µM): 0.234
relative viability ([9]; first compound 0.253 µM): 0.179
relative viability ([9]; first compound 2.53 µM): 0.162
relative viability ([10]; first compound 0.08 µM): 0.875
relative viability ([10]; first compound 0.253 µM): 0.832
relative viability ([10]; first compound 0.8 µM): 0.805
relative viability ([10]; first compound 2.53 µM): 0.908
relative viability ([11]; first compound 0.253 µM): 0.701
relative viability ([11]; first compound 0.8 µM): 0.667
relative viability ([11]; first compound 2.53 µM): 0.722
relative viability ([12]; first compound 0.08 µM): 0.368
relative viability ([12]; first compound 0.253 µM): 0.301
relative viability ([12]; first compound 0.8 µM): 0.356
relative viability ([12]; first compound 2.53 µM): 0.365
relative viability ([13]; first compound 0.08 µM): 0.576
relative viability ([13]; first compound 0.253 µM): 0.513
relative viability ([13]; first compound 0.8 µM): 0.545
relative viability ([13]; first compound 2.53 µM): 0.4
relative viability ([14]; first compound 0.08 µM): 0.967
relative viability ([14]; first compound 0.253 µM): 0.726
relative viability ([14]; first compound 0.8 µM): 0.813
relative viability ([14]; first compound 2.53 µM): 0.72
relative viability ([15]; first compound 0.08 µM): 0.454
relative viability ([15]; first compound 0.253 µM): 0.466
relative viability ([15]; first compound 0.8 µM): 0.531
relative viability ([15]; first compound 2.53 µM): 0.486
relative viability ([16]; first compound 0.08 µM): 0.279
relative viability ([16]; first compound 0.253 µM): 0.197
relative viability ([16]; first compound 0.8 µM): 0.208
relative viability ([16]; first compound 2.53 µM): 0.199
relative viability ([17]; first compound 0.08 µM): 0.585
relative viability ([17]; first compound 0.253 µM): 0.561
relative viability ([17]; first compound 0.8 µM): 0.548
relative viability ([17]; first compound 2.53 µM): 0.512
relative viability ([18]; first compound 0.08 µM): 0.168
relative viability ([18]; first compound 0.253 µM): 0.162
relative viability ([18]; first compound 0.8 µM): 0.165
relative viability ([18]; first compound 2.53 µM): 0.171
relative viability ([19]; first compound 0.08 µM): 0.0608
relative viability ([19]; first compound 0.253 µM): 0.0511
relative viability ([19]; first compound 0.8 µM): 0.07
relative viability ([19]; first compound 2.53 µM): 0.0697
relative viability ([20]; first compound 0.08 µM): 0.757
relative viability ([20]; first compound 0.8 µM): 0.594
relative viability ([20]; first compound 2.53 µM): 0.626
relative viability ([21]; first compound 0.08 µM): 0.544
relative viability ([21]; first compound 0.253 µM): 0.488
relative viability ([21]; first compound 0.8 µM): 0.588
relative viability ([21]; first compound 2.53 µM): 0.435
relative viability ([22]; first compound 0.08 µM): 0.168
relative viability ([22]; first compound 0.253 µM): 0.179
relative viability ([22]; first compound 0.8 µM): 0.166
relative viability ([22]; first compound 2.53 µM): 0.146
relative viability ([23]; first compound 0.08 µM): 1.01
relative viability ([23]; first compound 0.253 µM): 0.778
relative viability ([23]; first compound 0.8 µM): 0.835
relative viability ([23]; first compound 2.53 µM): 0.768
relative viability ([24]; first compound 0.253 µM): 0.45
relative viability ([24]; first compound 0.8 µM): 0.483
relative viability ([24]; first compound 2.53 µM): 0.42

Oc1nc(-c2ccc(C(F)(F)F)cc2)nc2c1CSCC2 [XAV939] + Nc1ncn([C@H]2C[C@H](O)[C@@H](CO)O2)c(=O)n1 [Decitabine] (partner 2 µM)
relative viability ([1]; first compound 0.08 µM): 0.87
relative viability ([1]; first compound 0.253 µM): 0.901
relative viability ([1]; first compound 0.8 µM): 0.779
relative viability ([1]; first compound 2.53 µM): 0.788
relative viability ([2]; first compound 0.08 µM): 0.719
relative viability ([2]; first compound 0.253 µM): 0.551
relative viability ([2]; first compound 0.8 µM): 0.587
relative viability ([2]; first compound 2.53 µM): 0.563
relative viability ([3]; first compound 0.08 µM): 0.444
relative viability ([3]; first compound 0.253 µM): 0.414
relative viability ([3]; first compound 0.8 µM): 0.424
relative viability ([3]; first compound 2.53 µM): 0.378
relative viability ([4]; first compound 0.08 µM): 0.329
relative viability ([4]; first compound 0.253 µM): 0.336
relative viability ([4]; first compound 0.8 µM): 0.356
relative viability ([4]; first compound 2.53 µM): 0.262
relative viability ([5]; first compound 0.08 µM): 0.357
relative viability ([5]; first compound 0.253 µM): 0.299
relative viability ([5]; first compound 0.8 µM): 0.385
relative viability ([5]; first compound 2.53 µM): 0.332
relative viability ([6]; first compound 0.08 µM): 0.637
relative viability ([6]; first compound 0.253 µM): 0.56
relative viability ([6]; first compound 0.8 µM): 0.576
relative viability ([6]; first compound 2.53 µM): 0.386
relative viability ([7]; first compound 0.08 µM): 0.702
relative viability ([7]; first compound 0.253 µM): 0.656
relative viability ([7]; first compound 0.8 µM): 0.656
relative viability ([7]; first compound 2.53 µM): 0.635
relative viability ([8]; first compound 0.08 µM): 0.327
relative viability ([8]; first compound 0.253 µM): 0.269
relative viability ([8]; first compound 0.8 µM): 0.321
relative viability ([8]; first compound 2.53 µM): 0.254
relative viability ([9]; first compound 0.08 µM): 0.211
relative viability ([9]; first compound 0.253 µM): 0.245
relative viability ([9]; first compound 2.53 µM): 0.21
relative viability ([10]; first compound 0.08 µM): 0.77
relative viability ([10]; first compound 0.253 µM): 0.683
relative viability ([10]; first compound 0.8 µM): 0.795
relative viability ([10]; first compound 2.53 µM): 0.688
relative viability ([11]; first compound 0.253 µM): 0.423
relative viability ([11]; first compound 0.8 µM): 0.386
relative viability ([11]; first compound 2.53 µM): 0.438
relative viability ([12]; first compound 0.08 µM): 0.407
relative viability ([12]; first compound 0.253 µM): 0.445
relative viability ([12]; first compound 0.8 µM): 0.361
relative viability ([12]; first compound 2.53 µM): 0.439
relative viability ([13]; first compound 0.08 µM): 0.606
relative viability ([13]; first compound 0.253 µM): 0.399
relative viability ([13]; first compound 0.8 µM): 0.625
relative viability ([13]; first compound 2.53 µM): 0.426
relative viability ([14]; first compound 0.08 µM): 0.604
relative viability ([14]; first compound 0.253 µM): 0.485
relative viability ([14]; first compound 0.8 µM): 0.503
relative viability ([14]; first compound 2.53 µM): 0.42
relative viability ([15]; first compound 0.08 µM): 0.253
relative viability ([15]; first compound 0.253 µM): 0.25
relative viability ([15]; first compound 0.8 µM): 0.265
relative viability ([15]; first compound 2.53 µM): 0.268
relative viability ([16]; first compound 0.08 µM): 0.207
relative viability ([16]; first compound 0.253 µM): 0.232
relative viability ([16]; first compound 0.8 µM): 0.212
relative viability ([16]; first compound 2.53 µM): 0.228
relative viability ([17]; first compound 0.08 µM): 0.684
relative viability ([17]; first compound 0.253 µM): 0.619
relative viability ([17]; first compound 0.8 µM): 0.653
relative viability ([17]; first compound 2.53 µM): 0.566
relative viability ([18]; first compound 0.08 µM): 0.219
relative viability ([18]; first compound 0.253 µM): 0.207
relative viability ([18]; first compound 0.8 µM): 0.235
relative viability ([18]; first compound 2.53 µM): 0.215
relative viability ([19]; first compound 0.08 µM): 0.599
relative viability ([19]; first compound 0.253 µM): 0.443
relative viability ([19]; first compound 0.8 µM): 0.501
relative viability ([19]; first compound 2.53 µM): 0.458
relative viability ([20]; first compound 0.08 µM): 0.54
relative viability ([20]; first compound 0.8 µM): 0.457
relative viability ([20]; first compound 2.53 µM): 0.495
relative viability ([21]; first compound 0.08 µM): 1
relative viability ([21]; first compound 0.253 µM): 0.976
relative viability ([21]; first compound 0.8 µM): 1.03
relative viability ([21]; first compound 2.53 µM): 0.928
relative viability ([22]; first compound 0.08 µM): 0.393
relative viability ([22]; first compound 0.253 µM): 0.26
relative viability ([22]; first compound 0.8 µM): 0.283
relative viability ([22]; first compound 2.53 µM): 0.279
relative viability ([23]; first compound 0.08 µM): 0.359
relative viability ([23]; first compound 0.253 µM): 0.342
relative viability ([23]; first compound 0.8 µM): 0.358
relative viability ([23]; first compound 2.53 µM): 0.381
relative viability ([24]; first compound 0.253 µM): 0.454
relative viability ([24]; first compound 0.8 µM): 0.438
relative viability ([24]; first compound 2.53 µM): 0.428
